Laboratory results as given in patent publication US20030109523A1, “Bicyclic antagonists selective for the alphavbeta3 integrin” (Wyeth, priority 1999, published 2003).

How the values were obtained:
[1] = molecular target: T1, Vitronectin Receptor (αVβ3) (Homo sapiens, UniProt P05106+P06756); assay: Vitronectin Receptor (αVβ3) Binding Test Procedure; settings: for IC50: read-out: (αVβ3) IC50 RECEPTOR BINDING
T1 construct: expressed in transfected cells; host or cells: 512P5 cells (plasma membrane preparation)

[2] = molecular target: T2, αVβ3 integrin (Homo sapiens, UniProt P05106+P06756); assay: Osteopontin-αVβ3 Cell Attachment Test Procedure; format: cell-based; settings: for IC50: attachment of cells to osteopontin, read-out: (αVβ3) IC50 CELL ATTACHMENT; for remaining activity at 20 µM / remaining activity at 100 µM: % of maximal attachment, read-out: (αVβ3) CELL ATTACHMENT, % @ concentration
T2 construct: αVβ3-expressing cell lines are maintained by standard tissue culture techniques; endogenous in cells; host or cells: αVβ3-expressing cell lines
Protocol: Osteopontin-αVβ3 Cell Attachment Test Procedure
Measuring the effect of compounds on the RGD-dependent attachment of cells to osteopontin mediated by the αVβ3 integrin.
Following incubation the wells were aspirated and washed once with D-PBS; plates can either be used immediately or stored for up to 1 week at 4° C. Prior to assay, the wells were blocked with 1% bovine serum albumin (BSA) in cell suspension media for 1 hour at 37° C. Following the blocking period, wells were aspirated and washed once with D-PBS.
αVβ3-expressing cell lines are maintained by standard tissue culture techniques. […] The cells were pelleted by low-speed centrifugation and washed three times with 0.5 mg/mL trypsin inhibitor in D-PBS (Sigma). The final cell pellet was resuspended in cell suspension media at a concentration of 10^6 cells/mL.
Incubation: 100 μL of diluted test compound was added to osteopontin-coated wells (in triplicate) followed by 100 μL of cell suspension; background cell attachment was determined in uncoated wells. The plate was incubated at 25° C. in a humidified air atmosphere for 1.5 hours. Following the incubation period, the wells were gently aspirated and washed once with D-PBS.
Cell Number Detection: The number of cells attached was determined by an MTT dye conversion assay (Promega) according to the manufacturer's instructions. Briefly, MTT dye was diluted in cell suspension media (15:85) and 100 μL was added to each well. […] The assay plates were covered and incubated at 37° C. in a humidified air atmosphere overnight.
The individual well optical density was expressed as a percentage of the maximal attachment (% Max) wells minus background attachment, and reported as the mean ±standard deviation.

[3] = molecular target: T3, αIIbβ3 integrin (Homo sapiens, UniProt P05106+P08514); assay: ADP-Induced Platelet Aggregation; format: cell-based; settings: Table VII; for IC50: ADP 20 uM, human platelets, read-out: Platelet Aggregation αIIbβ3 IC50; for remaining activity at 200 µM: percent of maximal aggregation
T3 construct: Human Platelets: Platelet-enriched plasma was obtained commercially from a donor pool; from tissue; host or cells: human platelet-rich plasma from a commercial donor pool
Protocol: Measurement of the Effect of Compounds on ADP-Induced Platelet Aggregation
Measuring the effect of compounds on ADP-induced platelet aggregation mediated by a fibrinogen-αIIbβ3 integrin interaction.
Human Platelets: Platelet-enriched plasma was obtained commercially from a donor pool. The plasma was tested prior to shipment and found to be negative for HIV, HCV and Hepatitis B. Platelet-rich plasma (PRP) was obtained by diluting plasma to an approximate final concentration of 3×10(6) platelets per mL in platelet poor plasma (PPP). PPP was the supernatant of a lowspeed centrifugation of plasma.
Adenosine diphosphate (ADP): ADP was obtained commercially and diluted to 1 mM (stock solution) in distilled, deionized water (ddH2O).
Incubation: PRP and PPP were prewarmed in a water bath at 37° C. […] PRP plus sample compound in a final volume of 500 uL was added to a pre-warmed cuvette in a ChronoLog aggregometer. A control containing PRP and 5 uL of vehicle was treated similarly to the test cuvette; final vehicle concentration was 1%. The two cuvettes were incubated with stirring (1000 rpm) at 37° C. for 5 minutes. Five hundred microliters of PPP was used as a reference (100% aggregation).
Aggregation: To begin the test, ADP was added yielding a final concentration of 20 uM to both samples (plus and minus sample compound). Light transmittance was monitored continuously and compared to the reference cuvette. After five minutes, the test was terminated and the slope and maximal amplitude of the resulting aggregation plot was calculated by the aggregometer.
The percent of maximal aggregation is the ratio of the maximal aggregations of the sample cuvette to the control multiplied by 100 (% Max) and reported as the mean+−standard deviation.

[4] = system: osteoclasts; assay: Osteoclast Bone Pitting; format: cell-based, rat; settings: Rattus norvegicus, Osteoclast
Protocol: Osteoclast Bone Pitting The test procedure was conducted as described by R. J. Murrills and D. W. […] At this pH the adherent osteoclasts excavate an adequate number of resorption pits for assay purposes. Slices were fixed in 2.5% glutaraldehyde and osteoclasts counted following tartrate-resistant acid phosphatase staining. […] All cells were stripped from the slice by sonication on 0.25M NH4OH and the resorption pits formed by the osteoclasts during the experiment stained with toluidine blue. Resorption pits were quantified by manually counting. The experiments were conducted according to a block design with osteoclasts from each animal exposed to each treatment. Three replicate slices were used per treatment per animal, such that a total of 96 slices were examined for an experiment involving four animals and eight treatments (including control). Several parameters were recorded on a “per slice” basis: number of pits, number of osteoclasts, number of pits per osteoclast, number of fibroblast-like bone cells. SAS or JMP statistical software were used for statistical analysis. […] IC50s were calculated using dose-response curves.

[5] = % Max = percentage of the specific binding, read-out: (αVβ3) RECEPTOR BINDING, % @ concentration

T2 sequence (P06756 31-889 limits assumed): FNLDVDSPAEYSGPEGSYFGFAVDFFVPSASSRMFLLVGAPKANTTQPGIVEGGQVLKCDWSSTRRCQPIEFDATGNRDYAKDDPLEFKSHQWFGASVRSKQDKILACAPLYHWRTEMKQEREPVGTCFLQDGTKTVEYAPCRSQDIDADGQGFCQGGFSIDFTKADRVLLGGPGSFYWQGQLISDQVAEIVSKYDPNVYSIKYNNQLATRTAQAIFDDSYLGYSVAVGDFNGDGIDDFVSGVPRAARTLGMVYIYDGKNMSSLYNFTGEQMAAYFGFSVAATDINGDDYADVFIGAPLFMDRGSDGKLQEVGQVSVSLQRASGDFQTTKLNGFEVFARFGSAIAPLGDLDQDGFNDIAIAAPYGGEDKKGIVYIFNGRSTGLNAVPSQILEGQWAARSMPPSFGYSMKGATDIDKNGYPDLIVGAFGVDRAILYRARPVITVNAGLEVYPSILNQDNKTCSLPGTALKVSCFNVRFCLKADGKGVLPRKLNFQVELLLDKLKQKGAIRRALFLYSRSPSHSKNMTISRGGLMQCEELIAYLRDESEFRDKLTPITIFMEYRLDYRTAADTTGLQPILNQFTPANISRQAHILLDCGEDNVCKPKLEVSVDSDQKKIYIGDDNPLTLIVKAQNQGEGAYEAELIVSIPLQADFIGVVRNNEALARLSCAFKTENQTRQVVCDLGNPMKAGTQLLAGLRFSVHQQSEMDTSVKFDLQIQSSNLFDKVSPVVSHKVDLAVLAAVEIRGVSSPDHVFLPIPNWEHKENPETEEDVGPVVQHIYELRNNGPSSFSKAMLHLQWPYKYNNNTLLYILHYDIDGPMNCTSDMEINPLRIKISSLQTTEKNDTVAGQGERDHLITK
T2 sequence (P06756 891-1048 partner limits assumed): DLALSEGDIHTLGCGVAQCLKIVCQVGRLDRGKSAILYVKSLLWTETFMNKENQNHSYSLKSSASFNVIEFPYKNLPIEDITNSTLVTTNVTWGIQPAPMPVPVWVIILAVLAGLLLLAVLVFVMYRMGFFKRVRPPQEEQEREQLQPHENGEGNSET
T2 sequence (P05106 27-788): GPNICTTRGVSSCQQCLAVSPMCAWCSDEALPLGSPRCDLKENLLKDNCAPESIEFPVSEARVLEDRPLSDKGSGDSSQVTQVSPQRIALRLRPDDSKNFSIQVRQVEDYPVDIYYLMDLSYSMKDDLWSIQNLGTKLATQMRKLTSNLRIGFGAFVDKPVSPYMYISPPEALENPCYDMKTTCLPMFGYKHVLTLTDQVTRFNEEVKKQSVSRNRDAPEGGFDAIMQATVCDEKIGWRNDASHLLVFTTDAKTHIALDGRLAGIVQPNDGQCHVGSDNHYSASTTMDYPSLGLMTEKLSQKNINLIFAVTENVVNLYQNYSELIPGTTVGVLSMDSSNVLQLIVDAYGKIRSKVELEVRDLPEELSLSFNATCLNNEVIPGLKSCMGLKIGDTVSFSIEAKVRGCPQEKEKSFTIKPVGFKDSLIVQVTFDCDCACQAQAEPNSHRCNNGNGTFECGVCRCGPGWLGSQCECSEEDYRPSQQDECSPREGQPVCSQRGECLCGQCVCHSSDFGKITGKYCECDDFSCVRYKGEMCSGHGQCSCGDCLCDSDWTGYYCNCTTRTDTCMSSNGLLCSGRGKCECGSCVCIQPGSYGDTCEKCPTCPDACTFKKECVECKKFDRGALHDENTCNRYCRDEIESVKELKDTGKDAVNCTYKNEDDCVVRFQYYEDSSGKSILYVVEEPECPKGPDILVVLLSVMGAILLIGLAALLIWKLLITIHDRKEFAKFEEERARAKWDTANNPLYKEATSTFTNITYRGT
T1 sequence (P06756 31-889 limits assumed): as the sequence (P06756 31-889 limits assumed) above
T1 sequence (P06756 891-1048 partner limits assumed): as the sequence (P06756 891-1048 partner limits assumed) above
T1 sequence (P05106 27-788): as the sequence (P05106 27-788) above
T3 sequence (P08514 32-887 limits assumed): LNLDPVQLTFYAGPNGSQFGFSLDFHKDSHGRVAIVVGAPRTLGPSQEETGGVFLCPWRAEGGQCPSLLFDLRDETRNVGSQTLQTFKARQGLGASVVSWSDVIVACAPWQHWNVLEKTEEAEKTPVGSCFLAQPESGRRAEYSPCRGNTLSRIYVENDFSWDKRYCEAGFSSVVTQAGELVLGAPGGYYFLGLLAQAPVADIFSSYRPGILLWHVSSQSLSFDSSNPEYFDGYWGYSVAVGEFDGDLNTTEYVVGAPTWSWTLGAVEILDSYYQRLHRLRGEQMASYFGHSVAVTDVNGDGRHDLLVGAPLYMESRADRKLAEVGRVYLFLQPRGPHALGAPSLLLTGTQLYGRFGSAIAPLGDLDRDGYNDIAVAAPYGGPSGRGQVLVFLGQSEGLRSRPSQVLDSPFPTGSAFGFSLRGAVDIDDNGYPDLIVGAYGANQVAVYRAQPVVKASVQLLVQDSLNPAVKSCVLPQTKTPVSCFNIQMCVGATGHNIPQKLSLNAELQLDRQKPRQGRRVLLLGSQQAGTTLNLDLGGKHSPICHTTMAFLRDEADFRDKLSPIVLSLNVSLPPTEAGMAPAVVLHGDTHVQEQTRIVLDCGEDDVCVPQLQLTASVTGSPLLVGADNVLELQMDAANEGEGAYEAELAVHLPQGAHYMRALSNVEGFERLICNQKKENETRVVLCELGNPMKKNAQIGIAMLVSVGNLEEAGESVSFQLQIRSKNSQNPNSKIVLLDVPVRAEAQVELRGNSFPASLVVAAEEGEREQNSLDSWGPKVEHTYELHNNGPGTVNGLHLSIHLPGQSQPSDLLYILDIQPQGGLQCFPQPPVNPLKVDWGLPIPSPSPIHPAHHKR
T3 sequence (P08514 891-1039 partner limits assumed): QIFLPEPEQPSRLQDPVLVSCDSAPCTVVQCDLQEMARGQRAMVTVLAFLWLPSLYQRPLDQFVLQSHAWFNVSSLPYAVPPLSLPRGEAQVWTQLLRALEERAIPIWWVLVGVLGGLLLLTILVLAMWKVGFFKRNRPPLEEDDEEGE
T3 sequence (P05106 27-788): as the sequence (P05106 27-788) above

Compound	IC50 [1] [µM]	IC50 [2] [µM]	melting point	remaining activity at 200 µM [3] [%]	remaining activity at 100 µM [2] [%]	other results
N=C(N)NCCCOc1ccc2c(c1)CCCC(CC(=O)O)C2.O=C(O)C(F)(F)F (stereo not shown) [Example 62, [2-(3-Guanidino-propoxy)-6,7,8,9-tetrahydro-5H-benzocyclohepten-6-yl]-acetic Acid Trifluoroacetate]	1.4	14	109 to 114 °C	–	–	IC50 [3]: 169 µM
N=C(N)NCCCCOc1ccc2c(c1)NC(=O)C(CC(=O)O)C2.O=C(O)C(F)(F)F (stereo not shown) [Example 84, [7-(4-Guanidino-butoxy)-2-oxo-1,2,3,4-tetrahydro-quinolin-3-yl]-acetic Acid Trifluoroacetate]	11.4	24.5	189 to 191 °C	62	–	inhibition at 223 µM ([4]; @ 223 μM): 57%
Cl.N=C(N)NCCCOc1ccc2c(c1)NC(=O)C(CC(=O)O)C2 (stereo not shown) [Example 86, [7-(3-Guanidino-propoxy)-2-oxo-1,2,3,4-tetrahydro-quinolin-3-yl]-acetic Acid Hydrochloride]	7.3	21.1	227 to 229 °C	80.9	–	inhibition at 280 µM ([4]; @ 280 μM): 70%
Cl.N=C(N)NCCC#Cc1ccc2c(c1)NC(=O)C(CC(=O)O)C2 (stereo not shown) [Example 100, [7-(4-Guanidino-but-1-ynyl)-2-oxo-1,2,3,4-tetrahydro-quinolin-3-yl]-acetic Acid Hydrochloride]	–	79	130 to 180 °C	–	–	remaining activity at 100 µM ([1]; @ 100 μM, % Max = percentage of the specific binding, read-out: (αVβ3) RECEPTOR BINDING, % @ concentration): 30.9%; inhibition at 264 µM ([4]; @ 264 μM): 38%; IC50 [3]: 216 µM
N=C(N)NCCC=Cc1ccc2c(c1)NC(=O)C(CC(=O)O)C2.O=C(O)C(F)(F)F (stereo not shown) [Example 112, [7-(4-Guanidino-but-1-enyl)-2-oxo-1,2,3,4-tetrahydro-quinolin-3-yl]-acetic Acid Trifluoroacetate]	7	19.7	173 to 176 °C	80.4	–	–
N=C(N)NCCCC=Cc1ccc2c(c1)NC(=O)C(CC(=O)O)C2.O=C(O)C(F)(F)F (stereo not shown) [Example 113, [7-(5-Guanidino-pent-1-enyl)-2-oxo-1,2,3,4-tetrahydro-quinolin-3-yl]-acetic Acid Trifluoroacetate]	4	17.8	162 to 165 °C	77.1	–	–
N=C(N)NCCCCc1ccc2c(c1)NC(=O)C(CC(=O)O)C2.O=C(O)C(F)(F)F (stereo not shown) [Example 121, [7-(4-Guanidino-butyl)-2-oxo-1,2,3,4-tetrahydro-quinolin-3-yl]-acetic Acid Trifluoroacetate]	2.6	15.1	157 to 160 °C	62	–	inhibition at 228 µM ([4]; @ 228 μM): 30%
N=C(N)NCCCCCc1ccc2c(c1)NC(=O)C(CC(=O)O)C2.O=C(O)C(F)(F)F (stereo not shown) [Example 122, [7-(5-Guanidino-pentyl)-2-oxo-1,2,3,4-tetrahydro-quinolin-3-yl]-acetic Acid Trifluoroacetate]	3.6	8.3	148 to 151 °C	–	–	IC50 ([4]; read-out: BONE PITTING INHIBITION IC50): 159 µM; IC50 [3]: 57 µM
CCn1c(=O)c(CC(=O)O)cc2ccc(OCCCNC(=N)N)cc21.O=C(O)C(F)(F)F [Example 149, [1-Ethyl-7-(3-guanidino-propoxy)-2-oxo-1,2-dihydro-quinolin-3-yl]-acetic Acid Trifluoroacetate]	–	–	131 °C	90.2	71.5	remaining activity at 20 µM [2]: 96.3%
CCN1C(=O)C(CC(=O)O)Cc2ccc(OCCCNC(=N)N)cc21.O=C(O)C(F)(F)F (stereo not shown) [Example 158, [1-Ethyl-7-(3-guanidino-propoxy)-2-oxo-1,2,3,4-tetrahydro-quinolin-3-yl]-acetic Acid Trifluoroacetate]	–	–	165 to 166 °C	–	–	inhibition at 216 µM ([4]; @ 216 μM): 13%
N=C(N)NCCCOc1ccc2c(c1)N(Cc1ccccc1)C(=O)C(CC(=O)O)C2 (stereo not shown) [Example 172, [1-Benzyl-7-(3-guanidino-propoxy)-2-oxo-1,2,3,4-tetrahydro-quinolin-3-yl]-acetic Acid]	2.7	27.3	172 to 173 °C	71.5	–	inhibition at 190 µM ([4]; @ 190 μM): 15%
Cl.N=C(N)NCCCCOc1ccc2cc(CC(=O)O)c(=O)[nH]c2c1 [Example 184, [7-(4-Guanidino-butoxy)-2-oxo-1,2-dihydro-quinolin-3-yl]-acetic Acid Hydrochloride]	–	–	216.5 to 219 °C	85.5	85	remaining activity at 30 µM [1, 5]: 67.5%; remaining activity at 20 µM [2]: 108%; inhibition at 271 µM ([4]; @ 271 μM): 37%
N=C(N)NCCCOc1ccc2c(c1)CC(CCC(=O)O)C(=O)N2 (stereo not shown) [Example 223, 3-[6-(3-Guanidino-propoxy)-2-oxo-1,2,3,4-tetrahydro-quinolin-3-yl]-propionic Acid]	–	–	168 to 172 °C	–	108	remaining activity at 30 µM [1, 5]: 100%; remaining activity at 20 µM [2]: 104%; inhibition at 226 µM ([4]; @ 226 μM): -72%; IC50 [3]: 54 µM
N=C(N)NCCOc1ccc2c(c1)NC(=O)C(CCC(=O)O)C2 (stereo not shown) [Example 230, 3-[7-(2-Guanidino-ethoxy)-2-oxo-1,2,3,4-tetrahydro-quinolin-3-yl]-propionic Acid]	–	–	193 to 196 °C	95.2	100	inhibition at 230 µM ([4]; @ 230 μM): 15%
N=C(N)NCCCOc1ccc2c(c1)NC(=O)C(CCC(=O)O)C2 (stereo not shown) [Example 231, 3-[7-(3-Guanidino-propoxy)-2-oxo-1,2,3,4-tetrahydro-quinolin-3-yl]-propionic Acid]	–	–	157 to 159 °C	78.3	93	remaining activity at 30 µM [1, 5]: 55.9%
N=C(N)NCCCOc1ccc2[nH]c(=O)c(CC(=O)O)cc2c1 [Example 237, [6-(3-Guanidino-propoxy)-2-oxo-1,2-dihydro-quinolin-3-yl]-acetic Acid]	–	–	207 to 212 °C (dec.)	96.5	114	remaining activity at 30 µM [1, 5]: 100%; remaining activity at 20 µM [2]: 86.2%
